Laboratory results: US20250270172A1, “Pyrimidine Derivatives As Modulators of the 5-HT2A Serotonin Receptor Useful For The Treatment of Disorders Related Thereto” (Arena Pharmaceuticals, Inc., priority 2020, published 2025)
pKi: −log10 of the molar value.

Molecular target: 5-HT2A (Homo sapiens (Human), UniProt P28223)
Test: Radioligand binding assay, [^3H]5-HT competition, 5-HT2A
Settings: [^3H]5-HT radioligand, membranes of HEK293 cells expressing recombinant 5-HT2A; Ki from IC50 by Cheng-Prusoff; read-out: 5-HT2A serotonin binding Ki value

Sequence of 5-HT2A (P28223 whole entry): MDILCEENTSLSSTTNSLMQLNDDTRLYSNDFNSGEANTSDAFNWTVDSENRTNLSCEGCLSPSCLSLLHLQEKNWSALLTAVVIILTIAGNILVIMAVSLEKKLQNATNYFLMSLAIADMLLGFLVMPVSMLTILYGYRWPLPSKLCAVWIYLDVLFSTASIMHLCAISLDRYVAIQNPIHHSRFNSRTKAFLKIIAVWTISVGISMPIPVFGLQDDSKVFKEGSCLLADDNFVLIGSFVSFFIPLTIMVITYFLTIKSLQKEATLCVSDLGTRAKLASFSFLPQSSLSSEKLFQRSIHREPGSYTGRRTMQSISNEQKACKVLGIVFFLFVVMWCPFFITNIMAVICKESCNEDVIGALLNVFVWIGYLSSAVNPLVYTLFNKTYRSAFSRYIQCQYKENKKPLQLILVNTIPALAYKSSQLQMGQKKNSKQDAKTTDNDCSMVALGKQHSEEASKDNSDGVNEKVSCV

SMILES: CCCN(CCF)CCOc1ccc(NC(=O)C2CC2)cc1-c1c(C)ncnc1C [Compound 363, N-[3-(4,6-dimethylpyrimidin-5-yl)-4-[2-[2-fluoroethyl(propyl)amino]ethoxy]phenyl]cyclopropanecarboxamide]
- pKi: 6.97

SMILES: Cc1ncnc(C)c1-c1cc(NC(=O)C2CC2)ccc1OCCN(C)CCS(C)(=O)=O [Compound 364, N-(3-(4,6-dimethylpyrimidin-5-yl)-4-(2-(methyl(2-(methylsulfonyl)ethyl)amino)ethoxy)phenyl)cyclopropanecarboxamide]
- pKi: 6.43

SMILES: Cc1ncnc(C)c1-c1cc(NC(=O)C2CC2)ccc1OCCN(C)CC[S+](C)[O-] (centres unmarked) [Compound 365, N-[3-(4,6-dimethylpyrimidin-5-yl)-4-[2-[methyl (2-methylsulfinylethyl)amino]ethoxy]phenyl]cyclopropanecarboxamide]
- pKi: 6.63

SMILES: CCN(C)CCOc1ccc(NC(=O)C2CC2)cc1-c1c(C)ncnc1C [Compound 366, N-[3-(4,6-dimethylpyrimidin-5-yl)-4-[2-[ethyl(methyl)amino]ethoxy]phenyl]cyclopropanecarboxamide]
- pKi: 7.95

SMILES: CCCN(C)CCOc1ccc(NC(=O)C2CC2)cc1-c1c(C)ncnc1C [Compound 367, N-(3-(4,6-dimethylpyrimidin-5-yl)-4-(2-(methyl(propyl)amino)ethoxy)phenyl)cyclopropanecarboxamide]
- pKi: 7.42

SMILES: Cc1ncnc(C)c1-c1cc(NC(=O)C2CC2)ccc1OCCN(C)CC1CC1 [Compound 368, N-(4-(2-((cyclopropylmethyl)(methyl)amino)ethoxy)-3-(4,6-dimethylpyrimidin-5-yl)phenyl)cyclopropanecarboxamide]
- pKi: 7.71

SMILES: Cc1ncnc(C)c1-c1cc(NC(=O)C2CC2)ccc1OCCN(C)C1CCC1 [Compound 369, N-(4-(2-(cyclobutyl(methyl)amino)ethoxy)-3-(4,6-dimethylpyrimidin-5-yl)phenyl)cyclopropanecarboxamide]
- pKi: 7.29

SMILES: CCN(CC)CCOc1ccc(NC(=O)C2CC2)cc1-c1c(C)ncnc1C [Compound 370, N-(4-(2-(diethylamino)ethoxy)-3-(4,6-dimethylpyrimidin-5-yl)phenyl)cyclopropanecarboxamide]
- pKi: 7.10

SMILES: COCCNCCOc1ccc(NC(=O)c2ccccc2)cc1-c1c(C)ncnc1C [Compound 371, N-(3-(4,6-dimethylpyrimidin-5-yl)-4-(2-((2-methoxyethyl)amino)ethoxy)phenyl)benzamide]
- pKi: 8.32

SMILES: COCCNCCOc1ccc(NC(=O)c2cccc(OC)c2)cc1-c1c(C)ncnc1C [Compound 372, N-(3-(4,6-dimethylpyrimidin-5-yl)-4-(2-((2-methoxyethyl)amino)ethoxy)phenyl)-3-methoxybenzamide]
- pKi: 8.70

SMILES: COCCNCCOc1ccc(NC(=O)c2cccc(F)c2)cc1-c1c(C)ncnc1C [Compound 373, N-(3-(4,6-dimethylpyrimidin-5-yl)-4-(2-((2-methoxyethyl)amino)ethoxy)phenyl)-3-fluorobenzamide]
- pKi: 8.76

SMILES: COCCNCCOc1ccc(NC(=O)c2ccc(F)cc2)cc1-c1c(C)ncnc1C [Compound 374, N-(3-(4,6-dimethylpyrimidin-5-yl)-4-(2-((2-methoxyethyl)amino)ethoxy)phenyl)-4-fluorobenzamide]
- pKi: 8.46

SMILES: COCCNCCOc1ccc(NC(=O)c2c(F)cnn2C)cc1-c1c(C)ncnc1C [Compound 375, N-(3-(4,6-dimethylpyrimidin-5-yl)-4-(2-((2-methoxyethyl)amino)ethoxy)phenyl)-4-fluoro-1-methyl-1H-pyrazole-5-carboxamide]
- pKi: 7.88

SMILES: COCCN(C)CCOc1ccc(NC(=O)c2ccccc2)cc1-c1c(C)ncnc1C [Compound 376, N-(3-(4,6-dimethylpyrimidin-5-yl)-4-(2-((2-methoxyethyl) (methyl)amino)ethoxy)phenyl)benzamide]
- pKi: 7.20

SMILES: COCCN(C)CCOc1ccc(NC(=O)c2cccc(OC)c2)cc1-c1c(C)ncnc1C [Compound 377, N-(3-(4,6-dimethylpyrimidin-5-yl)-4-(2-((2-methoxyethyl)(methyl)amino)ethoxy)phenyl)-3-methoxybenzamide]
- pKi: 8.58

SMILES: COCCN(C)CCOc1ccc(NC(=O)c2cccc(F)c2)cc1-c1c(C)ncnc1C [Compound 378, N-(3-(4,6-dimethylpyrimidin-5-yl)-4-(2-((2-methoxyethyl)(methyl)amino)ethoxy)phenyl)-3-fluorobenzamide]
- pKi: 7.90

SMILES: COCCN(C)CCOc1ccc(NC(=O)c2ccc(F)cc2)cc1-c1c(C)ncnc1C [Compound 379, N-(3-(4,6-dimethylpyrimidin-5-yl)-4-(2-((2-methoxyethyl)(methyl)amino)ethoxy)phenyl)-4-fluorobenzamide]
- pKi: 8.08

SMILES: COCCN(C)CCOc1ccc(NC(=O)c2c(F)cnn2C)cc1-c1c(C)ncnc1C [Compound 380, N-(3-(4,6-dimethylpyrimidin-5-yl)-4-(2-((2-methoxyethyl)(methyl)amino)ethoxy)phenyl)-4-fluoro-1-methyl-1H-pyrazole-5-carboxamide]
- pKi: 8.02

SMILES: Cc1ncnc(C)c1-c1cc(NC(=O)c2ccccc2)ccc1OCCN1C[C@@H]2C[C@H]1CO2 [Compound 381, N-(4-(2-((1S,4S)-2-oxa-5-azabicyclo[2.2.1]heptan-5-yl)ethoxy)-3-(4,6-dimethylpyrimidin-5-yl)phenyl)benzamide]
- pKi: 8.26

SMILES: Cc1ncnc(C)c1-c1cc(NC(=O)C2(F)CC2)ccc1OCCN1C[C@@H]2C[C@H]1CO2 [Compound 382, N-(4-(2-((1S,4S)-2-oxa-5-azabicyclo[2.2.1]heptan-5-yl)ethoxy)-3-(4,6-dimethylpyrimidin-5-yl)phenyl)-1-fluorocyclopropane-1-carboxamide]
- pKi: 8.06

SMILES: Cc1ncnc(C)c1-c1cc(NC(=O)c2ccnn2C)ccc1OCCN1C[C@@H]2C[C@H]1CO2 [Compound 383, N-(4-(2-((1S,4S)-2-oxa-5-azabicyclo[2.2.1]heptan-5-yl)ethoxy)-3-(4,6-dimethylpyrimidin-5-yl)phenyl)-1-methyl-1H-pyrazole-5-carboxamide]
- pKi: 8.05

SMILES: Cc1ncnc(C)c1-c1cc(NC(=O)c2ccccc2)ccc1OCCN1C[C@H]2C[C@H]2C1 [Compound 384, N-[4-[2-[(1R,5S)-3-azabicyclo[3.1.0]hexan-3-yl]ethoxy]-3-(4,6-dimethylpyrimidin-5-yl)phenyl]benzamide]
- pKi: 8.44

SMILES: Cc1ncnc(C)c1-c1cc(NC(=O)C2CC2)ccc1OCCN1CC(F)C1 [Compound 386, N-[3-(4,6-Dimethylpyrimidin-5-yl)-4-[2-(3-fluoroazetidin-1-yl)ethoxy]phenyl]cyclopropanecarboxamide]
- pKi: 8.83

SMILES: Cc1ncnc(C)c1-c1cc(NC(=O)c2ccccc2)ccc1OCCN1CC(F)C1 [Compound 387, N-[3-(4,6-dimethylpyrimidin-5-yl)-4-[2-(3-fluoroazetidin-1-yl)ethoxy]phenyl]benzamide]
- pKi: 7.88

SMILES: Cc1ncnc(C)c1-c1cc(NC(=O)C2CC2)ccc1OCCN1CC(O)C1 [Compound 388, N-[3-(4,6-dimethylpyrimidin-5-yl)-4-[2-(3-hydroxyazetidin-1-yl)ethoxy]phenyl]cyclopropanecarboxamide]
- pKi: 7.86

SMILES: Cc1ncnc(C)c1-c1cc(NC(=O)c2ccccc2)ccc1OCCN1CC(O)C1 [Compound 389, N-[3-(4,6-dimethylpyrimidin-5-yl)-4-[2-(3-hydroxyazetidin-1-yl)ethoxy]phenyl]benzamide]
- pKi: 7.95
